Assay: xn = mol fraction of the nth substance listed

C=C[n+]1ccn(CC(N)=O)c1.O=S(=O)([N-]S(=O)(=O)C(F)(F)F)C(F)(F)F + CC#N
100 kPa
Conditions | electrical conductivity [S/m] | viscosity [mPa·s]
298.15 K, x1 = 0.01 | 1.29 | 0.67
303.15 K, x1 = 0.07 | 3.51 | –
303.15 K, x1 = 0.1 | 3.28 | 10
303.15 K, x1 = 0.2 | 1.77 | –
303.15 K, x1 = 0.201 | – | 69
303.15 K, x1 = 0.393 | 0.48 | –
303.15 K, x1 = 0.4011 | – | 680
308.15 K, x1 = 0.01 | 1.4 | 0.61
308.15 K, x1 = 0.02 | 2.78 | –
308.15 K, x1 = 0.201 | – | 60
308.15 K, x1 = 1 | 0.03 | –
313.15 K, x1 = 0.1 | 3.8 | 8.2
313.15 K, x1 = 0.4011 | – | 424
318.15 K, x1 = 0.01 | 1.53 | 0.55
318.15 K, x1 = 0.047 | 3.87 | –
318.15 K, x1 = 0.2 | 2.38 | –
323.15 K, x1 = 0.08 | 4.39 | –
323.15 K, x1 = 0.2 | 2.58 | –
323.15 K, x1 = 0.3026 | – | 119
323.15 K, x1 = 1 | 0.1 | –
328.15 K, x1 = 0.07 | 4.58 | –
328.15 K, x1 = 0.1 | 4.49 | 6.6
328.15 K, x1 = 0.4011 | – | 233
328.15 K, x1 = 1 | 0.14 | –
333.15 K, x1 = 0.047 | 4.34 | –
333.15 K, x1 = 0.201 | – | 32.7

CCCCCC[n+]1ccccc1.O=[N+]([O-])[O-] + CC#N
298.15 K, 101 kPa
Conditions | viscosity [mPa·s]
x1 = 0.004149 | 0.5468
x1 = 0.008252 | 0.6095
x1 = 0.0124 | 0.6478
x1 = 0.01616 | 0.6731
x1 = 0.02021 | 0.6913
x1 = 0.02422 | 0.7042
x1 = 0.02814 | 0.7132
x1 = 0.032 | 0.7169
x1 = 0.03564 | 0.7185
x1 = 0.03937 | 0.7176

CCCC[P+](CCCC)(CCCC)CCCC.F[B-](F)(F)F + CC#N
viscosity [mPa·s], 100 kPa
Conditions | 293.15 K | 298.15 K | 303.15 K | 308.15 K | 313.15 K | 318.15 K
x1 = 0.0005293 | – | 0.347 | – | – | – | –
x1 = 0.0007957 | – | 0.35 | – | – | – | –
x1 = 0.001066 | – | 0.353 | – | – | – | –
x1 = 0.001332 | – | 0.356 | – | – | – | –
x1 = 0.001602 | – | 0.36 | – | – | – | –
x1 = 0.001872 | – | 0.363 | – | – | – | –
x1 = 0.004186 | 0.373 | 0.356 | 0.341 | 0.326 | 0.313 | 0.3
x1 = 0.0082 | 0.395 | 0.376 | 0.359 | 0.343 | 0.329 | 0.315
x1 = 0.01203 | 0.415 | 0.395 | 0.376 | 0.359 | 0.344 | 0.329
x1 = 0.01623 | 0.439 | 0.417 | 0.398 | 0.378 | 0.362 | 0.346
x1 = 0.01997 | 0.462 | 0.439 | 0.417 | 0.397 | 0.379 | 0.362
x1 = 0.02402 | 0.489 | 0.463 | 0.441 | 0.417 | 0.399 | 0.38
x1 = 0.02784 | 0.514 | 0.485 | 0.459 | 0.438 | 0.417 | 0.398
x1 = 0.03177 | 0.539 | 0.512 | 0.484 | 0.459 | 0.437 | 0.416
x1 = 0.03555 | 0.565 | 0.533 | 0.505 | 0.479 | 0.456 | 0.434
x1 = 0.03928 | 0.597 | 0.565 | 0.533 | 0.505 | 0.48 | 0.456

CC[NH3+].O=[N+]([O-])[O-] + CC#N
100 kPa
Conditions | electrical conductivity [S/m] | viscosity [mPa·s]
278 K, x1 = 0.3 | 2.52 | –
288 K, x1 = 0.7 | 2.71 | –
288.08 K, x1 = 0.7 | – | 20.78
288.08 K, x1 = 0.98 | – | 43.7
288.09 K, x1 = 0.3 | – | 3.15
293.09 K, x1 = 0.3 | – | 2.819
298 K, x1 = 0.7 | 3.71 | 14.73
298.1 K, x1 = 0.98 | – | 33.2
298.14 K, x1 = 0.2 | – | 1.406
308 K, x1 = 0.2 | 5.19 | –
308 K, x1 = 0.7 | 4.94 | –
308.09 K, x1 = 0.8 | – | 14.76
308.11 K, x1 = 0.9 | – | 20.7
308.12 K, x1 = 0.6 | – | 7.76
308.14 K, x1 = 0.7 | – | 10.53
308.15 K, x1 = 0.3 | – | 2.292

C[N+](C)(C)CCC[N+]1(C)CCCCC1.N#C[N-]C#N.N#C[N-]C#N + CC#N
100 kPa
Conditions | viscosity [mPa·s]
288.15 K, x1 = 0.7996 | 2305
293.15 K, x1 = 0.0999 | 3.69
293.15 K, x1 = 1 | 4503
298.15 K, x1 = 0.3001 | 37.7
298.15 K, x1 = 0.5002 | 181
298.15 K, x1 = 1 | 2819
303.15 K, x1 = 0.3998 | 69.5
308.15 K, x1 = 0.0999 | 2.98
308.15 K, x1 = 0.3001 | 26.5
308.15 K, x1 = 0.3998 | 56.5
308.15 K, x1 = 0.5002 | 109
313.15 K, x1 = 0.2001 | 9.24
313.15 K, x1 = 0.8998 | 545
318.15 K, x1 = 0.0999 | 2.68
318.15 K, x1 = 0.2001 | 8.26
318.15 K, x1 = 0.5002 | 70.4
318.15 K, x1 = 0.7001 | 163
318.15 K, x1 = 1 | 618
323.15 K, x1 = 0.3001 | 17.3
323.15 K, x1 = 0.6 | 91.8
323.15 K, x1 = 0.7001 | 130
328.15 K, x1 = 0.2001 | 6.82
328.15 K, x1 = 0.5002 | 48.7
328.15 K, x1 = 0.6 | 74.3
333.15 K, x1 = 0.5002 | 41.6
333.15 K, x1 = 0.8998 | 183

CCCC[P+](CCCC)(CCCC)CCCC.F[B-](F)(F)F + CC#N + C1CCOC1
298.15 K, 100 kPa
Conditions | viscosity [mPa·s]
x1 = 0.0005747, x2 = 0.84 | 0.377
x1 = 0.0006326, x2 = 0.6368 | 0.408
x1 = 0.000709, x2 = 0.369 | 0.437
x1 = 0.0008641, x2 = 0.8398 | 0.381
x1 = 0.0009513, x2 = 0.6366 | 0.412
x1 = 0.001066, x2 = 0.3689 | 0.442
x1 = 0.001153, x2 = 0.8395 | 0.384
x1 = 0.00127, x2 = 0.6364 | 0.416
x1 = 0.001429, x2 = 0.3688 | 0.447
x1 = 0.001442, x2 = 0.8393 | 0.388
x1 = 0.001588, x2 = 0.6362 | 0.42
x1 = 0.001736, x2 = 0.839 | 0.392
x1 = 0.001786, x2 = 0.3686 | 0.451
x1 = 0.001911, x2 = 0.636 | 0.424
x1 = 0.002029, x2 = 0.8388 | 0.396
x1 = 0.002142, x2 = 0.3685 | 0.456
x1 = 0.002229, x2 = 0.6358 | 0.429
x1 = 0.002504, x2 = 0.3684 | 0.461

CCCC[P+](CCCC)(CCCC)CCCC.F[B-](F)(F)F + CC#N + C1COCO1
298.15 K, 100 kPa
Conditions | viscosity [mPa·s]
x1 = 0.0005495, x2 = 0.8436 | 0.41
x1 = 0.0005755, x2 = 0.6431 | 0.471
x1 = 0.0006287, x2 = 0.3754 | 0.532
x1 = 0.0008217, x2 = 0.8434 | 0.414
x1 = 0.0008656, x2 = 0.6429 | 0.476
x1 = 0.0009366, x2 = 0.3753 | 0.537
x1 = 0.001098, x2 = 0.8432 | 0.418
x1 = 0.001156, x2 = 0.6427 | 0.481
x1 = 0.00125, x2 = 0.3751 | 0.543
x1 = 0.001375, x2 = 0.8429 | 0.422
x1 = 0.001445, x2 = 0.6425 | 0.486
x1 = 0.001564, x2 = 0.375 | 0.548
x1 = 0.001651, x2 = 0.8427 | 0.426
x1 = 0.00174, x2 = 0.6423 | 0.491
x1 = 0.001878, x2 = 0.3749 | 0.554
x1 = 0.001927, x2 = 0.8425 | 0.43
x1 = 0.00203, x2 = 0.6421 | 0.496
x1 = 0.002191, x2 = 0.3748 | 0.56

C[P+](c1ccccc1)(c1ccccc1)c1ccccc1.[Br-] + CC(=O)O
Conditions | viscosity [mPa·s]
298.2 K, 101 kPa, x1 = 0.2 | 74.5

CC(=O)[O-].[NH4+] + CC(=O)[O-].CC[n+]1ccn(C)c1
101 kPa
Conditions | electrical conductivity [S/m] | viscosity [mPa·s]
298.15 K, x1 = 0.4491 | 0.0734 | 1020
308.15 K, x1 = 0.328 | 0.215 | 273
308.15 K, x1 = 0.4491 | 0.148 | 458
313.15 K, x1 = 0.0999 | 0.494 | 76.2
313.15 K, x1 = 0.1703 | 0.41 | 101.3
313.15 K, x1 = 0.328 | 0.286 | 197
318.15 K, x1 = 0.2498 | 0.449 | 106.6
318.15 K, x1 = 0.328 | 0.371 | 144.6

CC(=O)[O-].[Na+] + CC(=O)[O-].CC[n+]1ccn(C)c1
303.15 K, 101 kPa, x1 = 0.1001
Conditions | electrical conductivity [S/m] | viscosity [mPa·s]
– | 0.252 | 147.4

From the CheMixHub ionic liquid set
